Legend:
hERG = hERG (Homo sapiens, UniProt Q12809); assay: hERG assay (QPatch automated patch clamp, CHO cells); assay type: cell-based; conditions: CHO cells stably expressing hERG, 1, 3, 10 and 30 μM, tail current, room temperature; for IC50: read-out: hERG pIC50 (converted)
Experimental: All experiments were performed on the QPatch automated patch clamp platform.
Series resistance (4-15 MΩ) was compensated by >80%.

human H4 receptor = molecular target: T1, human H4 receptor (Homo sapiens, UniProt Q9H3N8); assay: H4 Antagonist Functional Dynamic Mass Redistribution Assay; assay type: cell-based; conditions: HEKf cells expressing human H4 receptor, antagonist mode vs histamine EC80, pKb by Cheng-Prusoff; for Kb: read-out: Human H4 DMR fpKb (converted)
T1 construct: expressed in transfected cells; host or cells: HEKf cells infected with baculovirus
Experimental: H4 Antagonist Functional Dynamic Mass Redistribution Assay
HEKf cells were infected using baculovirus expressing the human H4 receptor, plated into fibronectin-coated EPIC plates at a density of 10,000 cells/well and incubated overnight at 37° C. The medium on cells was changed to […] HBSS with 20 mM HEPES per well and 30 nL DMSO were added per well by LabCyte ECHO acoustic dispensing. Following 2 h equilibration at room temperature, 30 nL of H4 ligands prepared in DMSO were stamped by LabCyte ECHO acoustic dispensing into seeded EPIC plates and cellular dynamic mass redistribution was monitored using a Corning EPIC plate reader. Following 45 min measurement, 30 nL/well of histamine EC80 was added and monitored to obtain antagonist assay data. Maximum baseline-corrected responses in pm were used to generate concentration response curves. EC50 values were generated using a 4-parameter logistical fit equation to quantify agonist potencies. Functional antagonist affinity values were generated using the Cheng-Prusoff equation to calculate a pKb value using the antagonist assay data.

Sequence of hERG (Q12809 whole entry): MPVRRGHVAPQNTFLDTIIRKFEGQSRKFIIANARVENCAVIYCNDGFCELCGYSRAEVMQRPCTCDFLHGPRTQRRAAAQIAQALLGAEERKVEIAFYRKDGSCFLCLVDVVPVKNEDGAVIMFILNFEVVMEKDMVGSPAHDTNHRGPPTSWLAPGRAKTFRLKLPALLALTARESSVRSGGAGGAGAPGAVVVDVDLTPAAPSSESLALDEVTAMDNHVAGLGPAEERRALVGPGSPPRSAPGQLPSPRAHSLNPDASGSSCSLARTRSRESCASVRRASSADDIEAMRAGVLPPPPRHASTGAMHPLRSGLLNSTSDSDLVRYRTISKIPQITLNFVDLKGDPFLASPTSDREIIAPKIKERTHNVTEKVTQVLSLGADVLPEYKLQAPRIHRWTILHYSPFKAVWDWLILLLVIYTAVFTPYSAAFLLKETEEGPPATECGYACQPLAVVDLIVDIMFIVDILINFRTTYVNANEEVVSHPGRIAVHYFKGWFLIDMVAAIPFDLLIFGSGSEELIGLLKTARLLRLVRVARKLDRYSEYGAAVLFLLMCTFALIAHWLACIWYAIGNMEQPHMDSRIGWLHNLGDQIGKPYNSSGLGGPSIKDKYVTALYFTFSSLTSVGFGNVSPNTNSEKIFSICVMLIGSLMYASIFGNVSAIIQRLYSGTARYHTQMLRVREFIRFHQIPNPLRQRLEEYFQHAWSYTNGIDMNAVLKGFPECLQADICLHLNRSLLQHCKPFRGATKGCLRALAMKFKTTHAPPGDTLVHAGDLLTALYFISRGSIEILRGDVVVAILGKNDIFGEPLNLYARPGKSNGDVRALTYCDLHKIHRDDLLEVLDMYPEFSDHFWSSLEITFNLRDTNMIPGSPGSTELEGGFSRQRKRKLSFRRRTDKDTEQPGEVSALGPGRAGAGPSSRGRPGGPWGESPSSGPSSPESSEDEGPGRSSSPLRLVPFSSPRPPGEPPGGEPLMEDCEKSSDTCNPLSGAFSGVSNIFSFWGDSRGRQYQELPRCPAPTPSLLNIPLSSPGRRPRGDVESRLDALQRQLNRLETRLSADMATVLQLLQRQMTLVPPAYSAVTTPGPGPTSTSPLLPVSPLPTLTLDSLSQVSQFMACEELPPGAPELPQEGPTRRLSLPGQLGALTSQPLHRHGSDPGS

Kb (human H4 receptor) [nM] | SMILES | hERG pIC50 (hERG) | Human H4 DMR fpKb (human H4 receptor) | IC50 (hERG) [nM]
 | CC(C)c1cc(N2CC[C@@H](N)C2)nc(N)n1 [JNJ-39758979, reference compound] | ≤4.0 | 8.5 | 
0.794 | CN[C@@H]1CCN(c2cc(NCC3CC3)nc(N)n2)C1 [PF-3893787, reference compound] |  |  | 7940
12.6 | Cc1cc(C)c2nc(-c3cnc(NCCCC4CCN(C)CC4)nc3C)[nH]c2c1 [Toreforant, reference compound] |  |  | 3160

— patent US20230167094A1, “H4 ANTAGONIST COMPOUNDS” (Heptares Therapeutics Limited, priority 2020, published 2023)
